Test system: TNFα release from human peripheral blood mononuclear cells
Assay: Inhibition of LPS-stimulated TNFα release from human peripheral blood mononuclear cells (TNFα screen, ELISA)
Type: cell-based
Details: LPS-stimulated human PBMC, 18 hours incubation, TNFα in supernatant by ELISA
Description: Venous blood is collected from healthy volunteers and the mononuclear cells purified by centrifugation through Histopaque (Ficoll) cushions. TNFα production from these cells is stimulated by addition of lipopolysaccharide. After 18 hours incubation in the presence of LPS, the cell supernatant is removed and the concentration of TNFα in the supernatant determined by ELISA.

IC50: 400 pM
Structure (SMILES): COc1ccc2cccnc2c1S(=O)(=O)N[C@H]1CC[C@@H](NC(=O)c2cccnc2OC2CCSCC2)CC1 [Example 29, Syn-N-[4-(7-methoxy-quinoline-8-sulfonylamino)-cyclohexyl]-2-(tetrahydro-thiopyran-4-yloxy)-nicotinamide]

Reference: patent US20090035313A1, “Compounds” (Pfizer Inc., priority 2003, published 2009)
